This is an account of results in paper PMC4032265 (PLoS ONE, 2014).

In one data set the target is T1, α2A adrenergic receptor (Homo sapiens, UniProt P08913).
T1 sequence (P08913 1-465): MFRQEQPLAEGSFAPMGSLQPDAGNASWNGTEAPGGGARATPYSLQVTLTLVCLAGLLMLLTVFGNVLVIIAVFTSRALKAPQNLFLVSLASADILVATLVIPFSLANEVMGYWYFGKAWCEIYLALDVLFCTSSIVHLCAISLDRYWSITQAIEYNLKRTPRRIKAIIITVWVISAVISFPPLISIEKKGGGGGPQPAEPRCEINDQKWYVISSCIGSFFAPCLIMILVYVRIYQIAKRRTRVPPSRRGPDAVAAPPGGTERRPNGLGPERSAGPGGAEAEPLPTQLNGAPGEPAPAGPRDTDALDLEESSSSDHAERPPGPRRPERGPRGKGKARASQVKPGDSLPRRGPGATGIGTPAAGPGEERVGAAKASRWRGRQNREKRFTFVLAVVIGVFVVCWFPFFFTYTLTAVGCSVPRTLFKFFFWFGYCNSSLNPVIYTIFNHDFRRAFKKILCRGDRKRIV
The data set is described as follows: PDSP radioligand binding, α2A. To be noted: read-out: % inhibition at 10 µM; single concentration 10 µM.

For the next data set, the target named is T2, α2B adrenergic receptor (Homo sapiens, UniProt P18089).
T2 sequence (P18089 1-450): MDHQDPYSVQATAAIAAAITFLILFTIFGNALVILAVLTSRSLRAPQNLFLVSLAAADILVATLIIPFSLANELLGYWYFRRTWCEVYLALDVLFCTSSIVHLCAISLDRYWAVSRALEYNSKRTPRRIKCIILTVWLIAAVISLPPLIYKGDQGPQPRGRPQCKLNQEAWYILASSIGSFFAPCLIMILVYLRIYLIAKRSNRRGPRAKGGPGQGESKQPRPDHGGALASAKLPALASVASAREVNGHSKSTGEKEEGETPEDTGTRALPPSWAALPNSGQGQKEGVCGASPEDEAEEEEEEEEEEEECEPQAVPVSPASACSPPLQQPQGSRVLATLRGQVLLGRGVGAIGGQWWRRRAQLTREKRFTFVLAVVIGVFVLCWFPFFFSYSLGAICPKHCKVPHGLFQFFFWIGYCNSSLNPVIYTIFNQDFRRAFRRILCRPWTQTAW
The data set is described as follows: PDSP radioligand binding, α2B. To be noted: read-out: % inhibition at 10 µM; single concentration 10 µM.

The target of data set [1] is T3, 5HT1A serotonergic receptor (Homo sapiens, UniProt P08908).
T3 sequence (P08908 1-422): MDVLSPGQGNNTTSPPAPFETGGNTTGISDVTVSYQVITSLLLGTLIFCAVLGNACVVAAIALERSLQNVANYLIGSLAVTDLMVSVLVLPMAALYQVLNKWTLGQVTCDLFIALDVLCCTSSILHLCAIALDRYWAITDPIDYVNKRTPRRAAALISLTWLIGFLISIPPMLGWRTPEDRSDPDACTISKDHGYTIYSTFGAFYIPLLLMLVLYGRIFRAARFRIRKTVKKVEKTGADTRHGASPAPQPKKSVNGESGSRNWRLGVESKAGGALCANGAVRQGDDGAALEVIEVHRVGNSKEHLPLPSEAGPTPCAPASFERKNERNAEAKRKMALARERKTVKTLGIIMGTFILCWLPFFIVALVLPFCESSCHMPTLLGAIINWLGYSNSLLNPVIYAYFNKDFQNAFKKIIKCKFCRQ
Kind of data set: PDSP radioligand binding, 5HT1A. To be noted: read-out: % inhibition at 10 µM; single concentration 10 µM.

The target in another data set is hERG potassium channel (Homo sapiens, UniProt Q12809). Kind of data set: PDSP hERG functional assay. The data set is classed as cell-based.
The next data set concerns the target σ1 receptor (Cavia porcellus, UniProt Q60492). Kind of data set: PDSP radioligand binding, σ1. To be noted: read-out: % inhibition at 10 µM; single concentration 10 µM.
The target in a further data set is β2 adrenergic receptor (Homo sapiens, UniProt P07550). The data set is described as follows: PDSP radioligand binding, β2. To be noted: read-out: % inhibition at 10 µM; single concentration 10 µM.
The target of data set [2] is T4, M2 muscarinic acetylcholine receptor (Homo sapiens, UniProt P08172).
T4 sequence (P08172 1-466): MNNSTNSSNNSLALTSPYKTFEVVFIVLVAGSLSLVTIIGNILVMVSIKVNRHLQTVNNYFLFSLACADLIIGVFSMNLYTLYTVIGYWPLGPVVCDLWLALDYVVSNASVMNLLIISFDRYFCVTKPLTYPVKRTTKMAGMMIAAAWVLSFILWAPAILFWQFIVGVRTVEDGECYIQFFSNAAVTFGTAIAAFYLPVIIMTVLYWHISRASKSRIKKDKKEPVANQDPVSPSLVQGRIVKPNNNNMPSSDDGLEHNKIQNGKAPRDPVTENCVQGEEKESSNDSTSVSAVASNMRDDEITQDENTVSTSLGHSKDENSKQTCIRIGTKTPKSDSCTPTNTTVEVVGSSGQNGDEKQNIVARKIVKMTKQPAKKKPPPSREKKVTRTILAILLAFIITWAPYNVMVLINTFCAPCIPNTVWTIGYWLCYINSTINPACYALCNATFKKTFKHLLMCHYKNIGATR
The data set is described as follows: PDSP radioligand binding, M2. Particulars: read-out: % inhibition at 10 µM; single concentration 10 µM.

The target in data set [3] is T5, M4 muscarinic acetylcholine receptor (Homo sapiens, UniProt P08173).
T5 sequence (P08173 1-479): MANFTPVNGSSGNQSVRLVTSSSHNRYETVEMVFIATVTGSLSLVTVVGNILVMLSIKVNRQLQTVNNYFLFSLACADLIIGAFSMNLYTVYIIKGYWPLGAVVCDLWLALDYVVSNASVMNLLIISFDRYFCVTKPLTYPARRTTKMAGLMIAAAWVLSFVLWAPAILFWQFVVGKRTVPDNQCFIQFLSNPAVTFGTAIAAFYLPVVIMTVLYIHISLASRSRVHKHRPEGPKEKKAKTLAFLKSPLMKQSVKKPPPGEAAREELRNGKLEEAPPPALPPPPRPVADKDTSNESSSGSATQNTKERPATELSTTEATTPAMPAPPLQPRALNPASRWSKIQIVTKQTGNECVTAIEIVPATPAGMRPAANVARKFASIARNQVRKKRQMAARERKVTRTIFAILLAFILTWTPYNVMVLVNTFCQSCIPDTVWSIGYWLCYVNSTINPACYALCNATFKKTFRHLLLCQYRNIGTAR
The data set is described as follows: PDSP radioligand binding, M4. To be noted: read-out: % inhibition at 10 µM; single concentration 10 µM.

The next data set concerns the target D2 dopaminergic receptor (Homo sapiens, UniProt P14416). The data set is described as follows: PDSP radioligand binding, D2. To be noted: read-out: % inhibition at 10 µM; single concentration 10 µM.
Data set [4] concerns the target 5HT1B serotonergic receptor (Homo sapiens, UniProt P28222). The data set is described as follows: PDSP radioligand binding, 5HT1B. To be noted: read-out: % inhibition at 10 µM; single concentration 10 µM.
The target of data set [5] is 5HT1D serotonergic receptor (Homo sapiens, UniProt P28221). The data set is described as follows: PDSP radioligand binding, 5HT1D. Particulars: read-out: % inhibition at 10 µM; single concentration 10 µM.
Data set [6] addresses 5HT6 serotonergic receptor (Homo sapiens, UniProt P50406). The data set is described as follows: PDSP radioligand binding, 5HT6. Particulars: read-out: % inhibition at 10 µM; single concentration 10 µM.

Each structure is given as a SMILES string.

Chain of 5HT1B serotonergic receptor (P28222 whole entry): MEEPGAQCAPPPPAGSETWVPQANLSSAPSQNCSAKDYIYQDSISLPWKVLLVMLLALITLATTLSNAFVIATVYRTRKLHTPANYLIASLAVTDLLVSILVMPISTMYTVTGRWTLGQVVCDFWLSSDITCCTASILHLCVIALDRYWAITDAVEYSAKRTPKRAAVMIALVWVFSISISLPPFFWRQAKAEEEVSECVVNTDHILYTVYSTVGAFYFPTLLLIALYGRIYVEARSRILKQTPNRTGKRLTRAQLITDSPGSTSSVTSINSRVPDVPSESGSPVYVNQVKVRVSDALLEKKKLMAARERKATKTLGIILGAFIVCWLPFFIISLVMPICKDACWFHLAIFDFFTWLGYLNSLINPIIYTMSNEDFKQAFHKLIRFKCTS
Chain of β2 adrenergic receptor (P07550 whole entry): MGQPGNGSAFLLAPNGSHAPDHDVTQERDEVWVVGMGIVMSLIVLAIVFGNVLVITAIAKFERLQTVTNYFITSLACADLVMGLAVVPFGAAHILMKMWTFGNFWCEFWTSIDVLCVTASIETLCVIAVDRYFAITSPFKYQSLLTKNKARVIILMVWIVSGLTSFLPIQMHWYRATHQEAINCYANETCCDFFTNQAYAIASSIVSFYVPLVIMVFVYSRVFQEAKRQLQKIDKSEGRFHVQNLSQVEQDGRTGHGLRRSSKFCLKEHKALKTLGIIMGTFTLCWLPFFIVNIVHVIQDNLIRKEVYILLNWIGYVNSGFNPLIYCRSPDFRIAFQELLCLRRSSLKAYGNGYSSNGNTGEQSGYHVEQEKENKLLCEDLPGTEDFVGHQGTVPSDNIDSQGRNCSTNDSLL
Chain of σ1 receptor (Q60492 whole entry): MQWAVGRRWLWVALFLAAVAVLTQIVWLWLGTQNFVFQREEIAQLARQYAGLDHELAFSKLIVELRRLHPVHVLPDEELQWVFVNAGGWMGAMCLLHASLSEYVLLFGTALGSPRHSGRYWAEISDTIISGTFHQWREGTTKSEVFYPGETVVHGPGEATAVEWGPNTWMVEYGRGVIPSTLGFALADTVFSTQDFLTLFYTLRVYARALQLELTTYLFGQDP
Chain of D2 dopaminergic receptor (P14416 whole entry): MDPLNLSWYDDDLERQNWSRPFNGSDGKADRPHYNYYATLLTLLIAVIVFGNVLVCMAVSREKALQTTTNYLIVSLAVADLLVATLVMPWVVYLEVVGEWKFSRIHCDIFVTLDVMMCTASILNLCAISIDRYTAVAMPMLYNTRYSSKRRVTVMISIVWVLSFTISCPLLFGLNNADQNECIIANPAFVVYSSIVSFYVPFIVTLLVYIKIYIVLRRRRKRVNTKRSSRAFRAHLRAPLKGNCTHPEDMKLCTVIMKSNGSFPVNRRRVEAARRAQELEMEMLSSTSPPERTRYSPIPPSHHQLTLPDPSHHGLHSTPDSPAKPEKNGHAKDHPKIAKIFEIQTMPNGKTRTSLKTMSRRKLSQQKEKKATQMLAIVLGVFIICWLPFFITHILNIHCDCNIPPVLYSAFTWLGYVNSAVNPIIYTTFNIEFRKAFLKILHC
Chain of hERG potassium channel (Q12809 whole entry): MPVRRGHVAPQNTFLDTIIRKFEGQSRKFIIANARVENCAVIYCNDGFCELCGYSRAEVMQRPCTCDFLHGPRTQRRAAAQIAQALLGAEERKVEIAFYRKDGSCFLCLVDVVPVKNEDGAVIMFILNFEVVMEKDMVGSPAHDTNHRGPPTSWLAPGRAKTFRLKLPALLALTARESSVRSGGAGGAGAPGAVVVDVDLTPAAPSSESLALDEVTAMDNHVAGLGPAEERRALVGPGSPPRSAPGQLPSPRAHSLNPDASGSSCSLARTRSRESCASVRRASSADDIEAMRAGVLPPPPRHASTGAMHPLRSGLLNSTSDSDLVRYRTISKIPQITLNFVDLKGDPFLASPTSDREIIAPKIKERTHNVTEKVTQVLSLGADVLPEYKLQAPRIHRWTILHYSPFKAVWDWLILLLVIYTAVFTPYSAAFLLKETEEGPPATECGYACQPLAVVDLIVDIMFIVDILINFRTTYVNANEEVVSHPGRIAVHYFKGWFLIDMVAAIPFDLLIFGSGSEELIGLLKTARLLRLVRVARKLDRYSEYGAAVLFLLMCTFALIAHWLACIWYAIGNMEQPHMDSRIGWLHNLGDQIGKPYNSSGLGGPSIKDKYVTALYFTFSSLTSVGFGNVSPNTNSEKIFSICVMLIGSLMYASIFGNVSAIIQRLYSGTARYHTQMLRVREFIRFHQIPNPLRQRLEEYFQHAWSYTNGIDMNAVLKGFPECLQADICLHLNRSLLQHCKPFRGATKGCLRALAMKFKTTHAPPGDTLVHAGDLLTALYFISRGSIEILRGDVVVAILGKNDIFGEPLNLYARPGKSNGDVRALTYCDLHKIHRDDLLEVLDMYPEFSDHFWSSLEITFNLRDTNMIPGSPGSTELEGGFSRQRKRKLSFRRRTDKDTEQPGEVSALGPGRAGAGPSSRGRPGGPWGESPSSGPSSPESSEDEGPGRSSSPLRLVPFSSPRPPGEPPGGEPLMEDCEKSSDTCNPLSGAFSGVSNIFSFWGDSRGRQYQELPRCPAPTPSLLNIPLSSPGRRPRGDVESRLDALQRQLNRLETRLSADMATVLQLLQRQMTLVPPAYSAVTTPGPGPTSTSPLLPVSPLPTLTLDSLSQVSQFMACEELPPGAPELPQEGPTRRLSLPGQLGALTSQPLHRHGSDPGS
Chain of 5HT6 serotonergic receptor (P50406 whole entry): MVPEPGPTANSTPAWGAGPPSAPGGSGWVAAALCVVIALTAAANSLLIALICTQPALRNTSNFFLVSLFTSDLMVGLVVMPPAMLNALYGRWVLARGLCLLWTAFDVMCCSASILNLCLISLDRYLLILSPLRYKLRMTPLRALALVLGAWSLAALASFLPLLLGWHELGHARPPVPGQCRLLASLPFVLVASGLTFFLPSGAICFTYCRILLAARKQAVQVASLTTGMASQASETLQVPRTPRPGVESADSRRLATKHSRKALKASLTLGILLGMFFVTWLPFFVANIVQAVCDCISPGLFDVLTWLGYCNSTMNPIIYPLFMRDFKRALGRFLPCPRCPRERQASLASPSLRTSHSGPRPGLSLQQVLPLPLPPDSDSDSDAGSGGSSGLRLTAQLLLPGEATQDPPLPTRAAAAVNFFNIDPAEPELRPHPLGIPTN
Chain of 5HT1D serotonergic receptor (P28221 whole entry): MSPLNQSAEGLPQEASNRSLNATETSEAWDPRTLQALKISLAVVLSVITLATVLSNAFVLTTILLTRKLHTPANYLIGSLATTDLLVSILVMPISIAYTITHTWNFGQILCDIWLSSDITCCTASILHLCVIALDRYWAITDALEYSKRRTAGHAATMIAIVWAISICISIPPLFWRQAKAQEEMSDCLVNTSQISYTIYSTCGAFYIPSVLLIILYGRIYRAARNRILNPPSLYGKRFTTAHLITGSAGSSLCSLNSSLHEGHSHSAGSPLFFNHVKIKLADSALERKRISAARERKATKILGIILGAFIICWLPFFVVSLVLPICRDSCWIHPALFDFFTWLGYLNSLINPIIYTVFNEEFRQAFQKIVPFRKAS

`CNC(=O)[C@@]12C[C@@H]1[C@@H](n1cnc3c(NC)nc(C#Cc4ccc(F)c(F)c4)nc31)[C@H](O)[C@@H]2O` [Compound 5]: the inhibition (as a rule, the percentage by which the read-out fell short of the control) at 10 µM at α2A adrenergic receptor is 0%; on α2B adrenergic receptor it was 0%; in data set [1], 10%; on σ1 receptor it was 10%; at β2 adrenergic receptor, 2%; in data set [2] it was 0%. Further, the inhibition at 10 µM in data set [3] amounted to 0%; at D2 dopaminergic receptor, 18%; in data set [4] it was 15%; in data set [5] it was 13%; in [6], 15%. In addition, affinity at hERG potassium channel (not binding) was put at a Ki of 7.93 µM.

In the case of `O[C@@H]1[C@H](O)[C@@H]2C[C@@H]2[C@H]1n1cnc2c(NC(C3CC3)C3CC3)nc(Cl)nc21` [Compound 10], the inhibition at 10 µM on α2A adrenergic receptor was 17%; on α2B adrenergic receptor, 15%; in data set [1], 4%; at σ1 receptor it was 9%; on β2 adrenergic receptor it was 2%; in data set [2], 15%. Further, the inhibition at 10 µM came to 7% in data set [3]; 29% at D2 dopaminergic receptor; 0% in data set [4]; 18% in [5]; 0% in data set [6]. Besides, the % inhibition (as a rule, the percentage by which the read-out fell short of the control) at 10 µM (hERG functional assay) on hERG potassium channel (single point 10 µM) is 4.5 ± 2.4%.
